According to patent publication US10023570B2 (Array BioPharma, Inc., priority 2015, dated 2018):
Structures can show the parent of a compound that is named as a salt. Where two headings read alike, the source gives them in different places.

Experiments:
[1] = target: human KDR protein in HEK-293 cells (Homo sapiens (Human), UniProt P35968); assay: KDR Cell Assay (phospho-KDR in HEK-293 cells expressing inducible KDR); type: cell-based; details: pKDR Cell HEK 10% FBS IC50, HEK-293 cells expressing inducible KDR, VEGF stimulated
Sequence of human KDR protein in HEK-293 cells (P35968 20-1356): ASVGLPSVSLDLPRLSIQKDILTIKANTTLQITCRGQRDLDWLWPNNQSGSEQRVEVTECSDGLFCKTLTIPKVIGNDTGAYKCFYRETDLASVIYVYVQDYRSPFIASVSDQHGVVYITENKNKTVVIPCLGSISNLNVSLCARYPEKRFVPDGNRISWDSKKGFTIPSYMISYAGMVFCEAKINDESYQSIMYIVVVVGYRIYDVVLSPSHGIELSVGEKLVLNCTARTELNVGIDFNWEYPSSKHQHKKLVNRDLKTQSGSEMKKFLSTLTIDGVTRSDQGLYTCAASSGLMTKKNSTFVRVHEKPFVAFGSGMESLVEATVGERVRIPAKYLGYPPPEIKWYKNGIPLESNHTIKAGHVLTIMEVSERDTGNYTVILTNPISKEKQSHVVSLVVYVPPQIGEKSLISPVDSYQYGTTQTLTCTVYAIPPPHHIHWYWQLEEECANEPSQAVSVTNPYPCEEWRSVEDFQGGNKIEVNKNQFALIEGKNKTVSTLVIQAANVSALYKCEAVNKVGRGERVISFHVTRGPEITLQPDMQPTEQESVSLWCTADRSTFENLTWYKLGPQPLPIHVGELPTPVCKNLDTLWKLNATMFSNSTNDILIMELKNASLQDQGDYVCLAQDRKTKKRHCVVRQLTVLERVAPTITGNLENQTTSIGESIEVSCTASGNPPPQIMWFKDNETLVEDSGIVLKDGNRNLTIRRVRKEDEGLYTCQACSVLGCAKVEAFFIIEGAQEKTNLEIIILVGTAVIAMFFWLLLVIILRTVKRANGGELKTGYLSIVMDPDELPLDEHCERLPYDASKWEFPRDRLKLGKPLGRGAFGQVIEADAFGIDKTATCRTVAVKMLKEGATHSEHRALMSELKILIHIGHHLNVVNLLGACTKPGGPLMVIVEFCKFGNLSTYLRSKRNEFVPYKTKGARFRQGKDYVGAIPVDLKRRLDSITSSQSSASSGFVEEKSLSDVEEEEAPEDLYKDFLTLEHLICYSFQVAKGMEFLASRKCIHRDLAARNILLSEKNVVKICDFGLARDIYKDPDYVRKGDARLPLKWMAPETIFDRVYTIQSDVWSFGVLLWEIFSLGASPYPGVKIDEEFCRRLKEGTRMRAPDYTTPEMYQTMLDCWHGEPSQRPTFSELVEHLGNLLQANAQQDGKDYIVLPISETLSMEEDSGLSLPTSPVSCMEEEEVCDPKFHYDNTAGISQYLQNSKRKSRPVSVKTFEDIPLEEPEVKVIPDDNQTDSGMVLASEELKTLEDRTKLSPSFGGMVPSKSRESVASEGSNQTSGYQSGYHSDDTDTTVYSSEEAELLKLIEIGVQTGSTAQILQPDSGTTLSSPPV
Procedure, shortened: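 HEK-293 cells with inducible human KDR were treated with compound for 1 h in DMEM (0.25% DMSO final), then lysed. Phospho-KDR was quantified by Meso Scale immunoassay, expressed as percent of control, and IC50 taken where a 4-parameter logistic fit crossed 50 POC.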

[2] = target: Kif5b-RET fusion protein in HEK-293 cells (Homo sapiens, UniProt P07949); assay: cell-based
Sequence of Kif5b-RET fusion protein in HEK-293 cells (P07949 29-1114 limits assumed): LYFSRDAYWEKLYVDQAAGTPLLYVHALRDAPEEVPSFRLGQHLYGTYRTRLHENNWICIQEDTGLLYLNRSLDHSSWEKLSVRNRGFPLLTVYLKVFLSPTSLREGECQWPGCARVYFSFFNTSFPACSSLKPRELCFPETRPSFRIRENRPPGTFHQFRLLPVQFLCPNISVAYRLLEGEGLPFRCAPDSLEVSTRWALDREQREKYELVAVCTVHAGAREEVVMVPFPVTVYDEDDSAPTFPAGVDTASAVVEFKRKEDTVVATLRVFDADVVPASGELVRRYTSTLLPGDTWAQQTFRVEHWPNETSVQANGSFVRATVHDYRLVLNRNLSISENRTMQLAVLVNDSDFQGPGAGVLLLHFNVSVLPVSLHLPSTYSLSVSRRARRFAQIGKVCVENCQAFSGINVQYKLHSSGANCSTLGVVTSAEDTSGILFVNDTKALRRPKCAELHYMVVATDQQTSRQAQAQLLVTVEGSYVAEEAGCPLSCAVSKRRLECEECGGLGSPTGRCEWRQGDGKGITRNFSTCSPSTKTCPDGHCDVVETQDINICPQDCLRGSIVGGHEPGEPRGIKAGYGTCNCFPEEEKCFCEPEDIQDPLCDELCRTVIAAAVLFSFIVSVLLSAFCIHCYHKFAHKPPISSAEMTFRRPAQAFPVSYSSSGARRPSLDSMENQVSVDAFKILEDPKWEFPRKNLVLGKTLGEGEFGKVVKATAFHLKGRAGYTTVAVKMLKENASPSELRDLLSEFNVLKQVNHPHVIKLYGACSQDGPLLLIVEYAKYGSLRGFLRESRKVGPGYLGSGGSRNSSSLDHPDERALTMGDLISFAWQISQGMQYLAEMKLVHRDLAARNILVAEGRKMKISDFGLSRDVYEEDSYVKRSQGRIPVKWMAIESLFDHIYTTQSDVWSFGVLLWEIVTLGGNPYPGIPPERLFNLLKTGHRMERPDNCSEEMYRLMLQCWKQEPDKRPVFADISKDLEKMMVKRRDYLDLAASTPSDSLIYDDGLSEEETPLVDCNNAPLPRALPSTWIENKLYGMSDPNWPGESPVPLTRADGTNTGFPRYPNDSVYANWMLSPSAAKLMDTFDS

[3] = target: N-terminal GST tagged recombinant human RET cytoplasmic domain (aa 658-end), wild type RET kinase (Homo sapiens (Human), UniProt P07949); assay: RET Enzyme Assay (HTRF KinEASE-TK), wild type RET; type: biochemical
Sequence of N-terminal GST tagged recombinant human RET cytoplasmic domain (aa 658-end), wild type RET kinase (P07949 658-1114): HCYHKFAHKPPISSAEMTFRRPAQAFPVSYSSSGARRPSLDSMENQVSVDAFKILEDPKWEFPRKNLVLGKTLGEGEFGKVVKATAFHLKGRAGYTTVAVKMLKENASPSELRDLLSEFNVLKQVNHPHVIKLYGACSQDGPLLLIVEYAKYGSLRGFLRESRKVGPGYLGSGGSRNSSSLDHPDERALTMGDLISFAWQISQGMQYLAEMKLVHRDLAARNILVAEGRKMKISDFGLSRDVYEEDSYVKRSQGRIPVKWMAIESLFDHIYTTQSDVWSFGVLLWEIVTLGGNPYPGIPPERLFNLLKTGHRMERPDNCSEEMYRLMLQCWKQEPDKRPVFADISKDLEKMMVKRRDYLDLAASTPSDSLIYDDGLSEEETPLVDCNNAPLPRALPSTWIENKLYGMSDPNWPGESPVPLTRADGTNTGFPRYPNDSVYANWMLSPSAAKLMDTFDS

[4] = HEK-293 cells expressing Kif5b-RET, phospho-RET(Tyr1062), read-out: KIF5B-RET pTYR1062 Cell IC50
[5] = HEK-293 cells expressing Kif5b-RET, read-out: KIF5B-RET pTYR1062 Cell IC50

SMILES	IC50 ([1]; 10% FBS)	IC50 [2, 4]	IC50 ([3]; wild type RET, 1 mM ATP)	IC50 [1]	IC50 [2, 5]	IC50 [2]	IC50 [3]
Cn1cc(-c2cc(-c3ccc(N4CCN(CCOC(C)(C)C)CC4)nc3)c3c(C#N)cnn3c2)cn1 [Example 420, 4-(6-(4-(2-(tert-butoxy)ethyl)piperazin-1-yl)pyridine-3-yl)-6-(1-methyl-1H-pyrazol-4-yl)pyrazolo[1,5-a]pyridine-3-carbonitrile]	–	–	10.9 nM	792 nM	5.6 nM	–	–
Cc1cccc(CN2CCN(c3ccc(-c4cc(-c5cnn(C)c5)cn5ncc(C#N)c45)cn3)CC2)n1 [Example 433, 6-(1-methyl-1H-pyrazol-4-yl)-4-(6-(4-((6-methylpyridin-2-yl)methyl)piperazin-l-yl)pyridine-3-yl)pyrazolo[1,5-a]pyridine-3-carbonitrile]	–	–	9.7 nM	1080 nM	–	6 nM	–
COc1ccccc1CN1CCN(c2ccc(-c3cc(-c4cnn(C)c4)cn4ncc(C#N)c34)cn2)CC1 [Example 451, 4-(6-(4-(2-methoxybenzyl)piperazin-1-yl)pyridin-3-yl)-6-(1-methyl-1H-pyrazol-4-yl)pyrazolo[1,5-a]pyridine-3-carbonitrile]	–	–	4.9 nM	593 nM	–	4.9 nM	–
COc1ccc(CN2CCN(c3ccc(-c4cc(-c5cnn(C)c5)cn5ncc(C#N)c45)cn3)CC2)nc1 [Example 458, 4-(6-(4-((5-methoxypyridin-2-yl)methyl)piperazin-1-yl)pyridin-3-yl)-6-(1-methyl-1H-pyrazol-4-yl)pyrazolo[1,5-a]pyridine-3-carbonitrile]	–	–	6.9 nM	324 nM	–	2.4 nM	–
COc1cccnc1CN1CCN(c2ccc(-c3cc(-c4cnn(C)c4)cn4ncc(C#N)c34)cn2)CC1 [Example 463, 4-(6-(4-((3-methoxypyridin-2-yl)methyl)piperazin-1-yl)pyridin-3-yl)-6-(1-methyl-1H-pyrazol-4-yl)pyrazolo[1,5-a]pyridine-3-carbonitrile formate]	–	–	9.7 nM	678 nM	–	17.7 nM	–
Cn1cc(-c2cc(-c3ccc(N4CCN(CCNC(=O)OC(C)(C)C)CC4)nc3)c3c(C#N)cnn3c2)cn1 [Example 506, tert-butyl (2-(4-(5-(3-cyano-6-(1-methyl-1H-pyrazol-4-yl)pyrazolo[1,5-a]pyridin-4-yl)pyridin-2-yl)piperazin-1-yl)ethyl)carbamate]	–	–	31.3 nM	212 nM	–	6.5 nM	–
Cn1cc(-c2cc(-c3ccc(N4CCC(O)(C(F)(F)F)CC4)nc3)c3c(C#N)cnn3c2)cn1 [Example 510, 4-(6-(4-hydroxy-4-(trifluoromethyl)piperidin-1-yl)pyridin-3-yl)-6-(1-methyl-1H-pyrazol-4-yl)pyrazolo[1,5-a]pyridine-3-carbonitrile 2,2,2-trifluoroacetate]	–	–	–	323 nM	9.6 nM	–	6.7 nM
CC(C)N(CCO)C(=O)C1CCN(c2ccc(-c3cc(-c4cnn(C)c4)cn4ncc(C#N)c34)cn2)CC1 [Example 561, 1-(5-(3-cyano-6-(1-methyl-1H-pyrazol-4-yl)pyrazolo[1,5-a]pyridin-4-yl)pyridin-2-yl)-N-(2-hydroxyethyl)-N-isopropylpiperidine-4-carboxamide 2,2,2-trifluoroacetate]	–	–	23.8 nM	1730 nM	–	37.5 nM	–
Cn1cc(-c2cc(-c3ccc(N4CCC(C(=O)NOC(C)(C)C)CC4)nc3)c3c(C#N)cnn3c2)cn1 [Example 565, N-(tert-butoxy)-1-(5-(3-cyano-6-(1-methyl-1H-pyrazol-4-yl)pyrazolo[1,5-a]pyridin-4-yl)pyridin-2-yl)piperidine-4-carboxamide]	–	–	6.4 nM	540 nM	10.3 nM	–	–
Cn1cc(-c2cc(-c3ccc(N4CCC(S(C)(=O)=O)CC4)nc3)c3c(C#N)cnn3c2)cn1 [Example 567, 6-(1-methyl-1H-pyrazol-4-yl)-4-(6-(4-(methylsulfonyl)piperidin-1-yl)pyridin-3-yl)pyrazolo[1,5-a]pyridine-3-carbonitrile]	–	–	3.1 nM	198 nM	–	4.9 nM	–

Second part, led by results:

IC50 ([1]; 10% FBS)	IC50 [2, 4]	IC50 ([3]; wild type RET, 1 mM ATP)	IC50 [1]	IC50 [2, 5]	SMILES	IC50 [2]	IC50 [3]
2390 nM	156 nM	63.7 nM	–	–	CN1CCN(c2ccc(-c3cc(-c4cnn(C)c4)cn4ncc(Cl)c34)cn2)CC1 [Example 333, 3-chloro-6-(1-methyl-1H-pyrazol-4-yl)-4-(6-(4-methylpiperazin-1-yl)pyridin-3-yl)pyrazolo[1,5-a]pyridine]	–	–
2200 nM	13.7 nM	13.9 nM	–	–	COCC(C)(C)C(=O)N1CCN(c2ccc(-c3cc(-c4cnn(C)c4)cn4ncc(C#N)c34)cn2)CC1 [Example 352, 4-(6-(4-(3-methoxy-2,2-dimethylpropanoyl)piperazin-1-yl)pyridin-3-yl)-6-(1-methyl-1H-pyrazol-4-yl)pyrazolo[1,5-a]pyridine-3-carbonitrile]	–	–
–	–	27.1 nM	1970 nM	47.3 nM	COCCN(CCOC)C(=O)N1CCN(c2ccc(-c3cc(-c4cnn(C)c4)cn4ncc(C#N)c34)cn2)CC1 [Example 385, 4-(5-(3-cyano-6-(1-methyl-1H-pyrazol-4-yl)pyrazolo[1,5-a]pyridin-4-yl)pyridine-2-yl)-N,N-bis(2-methoxyethyl)piperazine-1-carboxamide]	–	–
–	–	8.5 nM	765 nM	3.6 nM	CC(C)OCCN1CCN(c2ccc(-c3cc(-c4cnn(C)c4)cn4ncc(C#N)c34)cn2)CC1 [Example 392, 4-(6-(4-(2-isopropoxyethyl)piperazin-1-yl)pyridin-3-yl)-6-(1-methyl-1H-pyrazol-4-yl)pyrazolo[1,5-a]pyridin-3-carbonitrile]	–	–
–	–	11.1 nM	1300 nM	18.6 nM	Cn1cc(-c2cc(-c3ccc(N4CCN(CCOC(F)(F)F)CC4)nc3)c3c(C#N)cnn3c2)cn1 [Example 398, 6-(1-methyl-1H-pyrazol-4-yl)-4-(6-(4-(2-(trifluoromethoxy)ethyl)piperazin-1-yl)pyridin-3-yl)pyrazolo[1,5-a]pyridine-3-carbonitrile]	–	–
–	–	21.6 nM	2130 nM	18.2 nM	CO[C@H](C)CN1CCN(c2ccc(-c3cc(-c4cnn(C)c4)cn4ncc(C#N)c34)cn2)CC1 [Example 412, (R)-4-(6-(4-(2-methoxypropyl)piperazin-1-yl)pyridin-3-yl)-6-(1-methyl-1H-pyrazol-4-yl)pyrazolo[1,5-a]pyridine-3-carbonitrile]	–	–
–	–	15.6 nM	549 nM	29.1 nM	COC(CN1CCN(c2ccc(-c3cc(-c4cnn(C)c4)cn4ncc(C#N)c34)cn2)CC1)C(C)C (stereo not drawn) [Example 413, 4-(6-(4-(2-methoxy-3-methylbutyl)piperazin-1-yl)pyridin-3-yl)-6-(1-methyl-1H-pyrazol-4-yl)pyrazolo[1,5-a]pyridine-3-carbonitrile]	–	–
–	–	41.3 nM	2280 nM	41.5 nM	COC(C)(C)CN1CCN(c2ccc(-c3cc(-c4cnn(C)c4)cn4ncc(C#N)c34)cn2)CC1 [Example 414, 4-(6-(4-(2-methoxy-2-methylpropyl)piperazin-1-yl)pyridin-3-yl)-6-(1-methyl-1H-pyrazol-4-yl)pyrazolo[1,5-a]pyridine-3-carbonitrile]	–	–
–	–	25.2 nM	2030 nM	25.4 nM	CO[C@@H](C)CN1CCN(c2ccc(-c3cc(-c4cnn(C)c4)cn4ncc(C#N)c34)cn2)CC1 [Example 415, (S)-4-(6-(4-(2-methoxypropyl)piperazin-1-yl)pyridin-3-yl)-6-(1-methyl-1H-pyrazol-4-yl)pyrazolo[1,5-a]pyridine-3-carbonitrile]	–	–
–	–	10 nM	844 nM	12.1 nM	COc1ncccc1CN1CCN(c2ccc(-c3cc(-c4cnn(C)c4)cn4ncc(C#N)c34)cn2)CC1 [Example 452, 4-(6-(4-((2-methoxypyridin-3-yl)methyl)piperazin-1-yl)pyridin-3-yl)-6-(1-methyl-1H-pyrazol-4-yl)pyrazolo[1,5-a]pyridine-3-carbonitrile]	–	–
–	–	13.1 nM	877 nM	19.5 nM	COc1ncc(F)cc1CN1CCN(c2ccc(-c3cc(-c4cnn(C)c4)cn4ncc(C#N)c34)cn2)CC1 [Example 457, 4-(6-(4-((5-fluoro-2-methoxypyridin-3-yl)methyl)piperazin-1-yl)pyridin-3-yl)-6-(1-methyl-1H-pyrazol-4-yl)pyrazolo[1,5-a]pyridine-3-carbonitrile]	–	–
–	–	6.4 nM	740 nM	26.2 nM	CONC(=O)C1CCN(c2ccc(-c3cc(-c4cnn(C)c4)cn4ncc(C#N)c34)cn2)CC1 [Example 564, 1-(5-(3-cyano-6-(1-methyl-1H-pyrazol-4-yl)pyrazolo[1,5-a]pyridin-4-yl)pyridin-2-yl)-N-methoxypiperidine-4-carboxamide]	–	–
–	–	6.2 nM	2.2 nM	2.8 nM	CC(C)NS(=O)(=O)C1CCN(c2ccc(-c3cc(-c4cnn(C)c4)cn4ncc(C#N)c34)cn2)CC1 [Example 569, 1-(5-(3-cyano-6-(1-methyl-1H-pyrazol-4-yl)pyrazolo[1,5-a]pyridin-4-yl)pyridin-2-yl)-N-isopropylpiperidine-4-sulfonamide]	–	–
–	–	5.2 nM	≥ 5000 nM	15.6 nM	N#Cc1cnn2cc(-c3cnn(C(F)F)c3)cc(-c3ccc(N4CCN(Cc5ccccn5)CC4)nc3)c12 [Example 586, 6-(1-(difluoromethyl)-1H-pyrazol-4-yl)-4-(6-(4-(pyridine-2-ylmethyl)piperazin-1-yl)pyridin-3-yl)pyrazolo[1,5-a]pyridine-3-carbonitrile]	–	–
